One data set concerns the target human Fyn (Homo sapiens, UniProt P06241). The experiment in a line: C2: Fyn kinase assay. The data set is classed as biochemical. The settings on record: 5 ng human Fyn, 1.0 μM unlabeled ATP, poly(Glu,Tyr) 4:1, 25° C., 10 minutes; for IC50: read-out: C2: Fyn kinase pIC50 (converted). As for the experimental part:
In this assay the Fyn kinase reaction is performed at 25° C. for 10 minutes in a 96-well microtiterplate. The 25 μl reaction volume contains 8 mM MOPS pH 7.0, 20 mM Mg-acetate, 0.2 mM Na2EDTA, 0.5 mM MnCl2, 1.0 μM unlabeled ATP, 0.2 μCi AT^33P, 20 ng poly(Glu,Tyr) 4:1 and 5 ng human Fyn.
The reaction is stopped by adding 5 μl of a 3% phosphoric acid solution. 5 μl of the reaction mixture is then spotted onto a Filtermat A filter (Wallac) and washed 3 times for 5 min. in 75 mM phosphoric acid and 1 time for 5 min. in methanol prior to drying and scintillation counting.

The next data set concerns the target human Src (Homo sapiens, UniProt P12931). The experiment in a line: C1: c-Src filter assay. The data set is classed as biochemical. The conditions noted are these: 5 ng human Src, 1.0 μM unlabeled ATP, poly(Glu,Tyr) 4:1, 25° C., 10 minutes; read-out: C1: c-SRC filter pIC50 (converted). As for the experimental part:
The in vitro inhibition of c-Src kinase was assessed using the glass-fiber filter technology as described by Davies, S. P. et al., Biochem J. (2000), 351; p. 95-105.
In the glass-fiber filter technology the activity of the kinase is measured using an appropriate substrate that is incubated with the aforementioned kinase protein in the presence of (^33P) radiolabeled ATP. (^33P) Phosporylation of the substrate is subsequently measured as radioactivity bound on a glassfiber-filter.
In an alternative filter based assay the final kinase activity was assessed using a phosphostorage screen instead of scintilation counting.
In this assay the Src kinase reaction is performed at 25° C. for 10 minutes in a 96-well microtiterplate. The 25 μl reaction volume contains 8 mM MOPS pH 7.0, 20 mM Mg-acetate, 0.2 mM Na2EDTA, 0.5 mM MnCl2, 1.0 μM unlabeled ATP, 0.2 μCi AT^33P, 20 ng poly(Glu,Tyr) 4:1 and 5 ng human Src.
The reaction is stopped by adding 5 μl of a 3% phosphoric acid solution. 5 μl of the reaction mixture is then spotted onto a Filtermat A filter (Wallac) and washed 3 times for 5 min. in 75 mM phosphoric acid and 1 time for 5 min. in methanol prior to drying and quantification on the Typhoon (Amersham) using a phosphostorage screen.

Where a name gives a salt, the structure may show the parent alone.

As usually defined, the melting point is the temperature of the solid-liquid transition.

human Fyn, sequence (P06241 whole entry): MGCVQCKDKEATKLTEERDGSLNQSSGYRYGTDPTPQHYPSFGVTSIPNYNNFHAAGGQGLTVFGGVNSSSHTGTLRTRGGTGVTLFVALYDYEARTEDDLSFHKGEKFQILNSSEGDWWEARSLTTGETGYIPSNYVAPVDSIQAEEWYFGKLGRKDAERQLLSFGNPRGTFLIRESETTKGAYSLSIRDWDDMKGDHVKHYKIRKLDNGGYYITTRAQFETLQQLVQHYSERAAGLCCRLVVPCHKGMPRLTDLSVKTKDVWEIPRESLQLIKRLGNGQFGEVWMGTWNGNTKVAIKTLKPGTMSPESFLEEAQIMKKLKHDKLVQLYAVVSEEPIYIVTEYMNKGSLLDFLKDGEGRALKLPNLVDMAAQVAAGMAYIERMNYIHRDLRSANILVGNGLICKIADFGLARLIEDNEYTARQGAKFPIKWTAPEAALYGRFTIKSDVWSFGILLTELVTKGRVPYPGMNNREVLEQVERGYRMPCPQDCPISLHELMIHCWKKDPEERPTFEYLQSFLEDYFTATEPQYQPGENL
human Src, sequence (P12931 whole entry): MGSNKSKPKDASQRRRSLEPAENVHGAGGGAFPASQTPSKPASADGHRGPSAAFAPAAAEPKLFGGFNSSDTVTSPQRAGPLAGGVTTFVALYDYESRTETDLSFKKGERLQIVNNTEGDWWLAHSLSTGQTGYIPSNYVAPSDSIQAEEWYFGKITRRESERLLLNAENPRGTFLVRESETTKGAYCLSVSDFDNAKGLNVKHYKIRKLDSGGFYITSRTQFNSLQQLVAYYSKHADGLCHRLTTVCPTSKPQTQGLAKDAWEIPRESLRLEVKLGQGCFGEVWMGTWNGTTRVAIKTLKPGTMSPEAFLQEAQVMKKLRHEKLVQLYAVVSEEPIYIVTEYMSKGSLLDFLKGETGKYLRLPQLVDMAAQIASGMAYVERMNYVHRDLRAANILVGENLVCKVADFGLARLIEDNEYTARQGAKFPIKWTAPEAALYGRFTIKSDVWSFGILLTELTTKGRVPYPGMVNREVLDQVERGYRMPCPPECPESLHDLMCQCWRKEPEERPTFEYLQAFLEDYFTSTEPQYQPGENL

For the compound `CN1CCN(CCCOc2cc3ncnc4c3cc2OCCCCCNCc2cc(Br)c3c(c2N4)OCO3)CC1` (as salt: HCl) [Compound B28], the melting point turned out to be 244 °C. `CN1CCCCCOc2cc3c(ncnc3cc2OCCCNCCO)Nc2c(cc(Br)c3c2OCO3)C1` [Compound B71] displayed a melting point of 241 °C. With `COc1cc2ncnc3c2cc1OCCCNCCN(C)Cc1ccc2c(c1N3)OCO2` [Compound A22], the IC50 is 39.8 nM at human Fyn and 3240 nM at human Src.

On to `Brc1cc2c(c3c1OCO3)Nc1ncnc3cc(OCCCN4CCCC4)c(cc13)OCCCCCNC2` (as salt: HCl) [Compound B27], for which the melting point turned out to be 224 °C. Turning to `CN1CCCCCOc2cc3c(ncnc3cc2OCCCN2CCS(=O)(=O)CC2)Nc2c(ccc3c2OCO3)C1` [Compound B23], the IC50 at human Fyn was less than 1000 nM; at human Src it was 708 nM.

In the case of `CN1CCCCCOc2cc3c(ncnc3cc2OCCCNCCS(C)(=O)=O)Nc2c(ccc3c2OCO3)C1` [Compound B68], the IC50 on human Fyn was less than 1000 nM; on human Src it was 692 nM.

For the compound `COCCNCCCOc1cc2ncnc3c2cc1OCCCCCN(C)Cc1ccc2c(c1N3)OCO2` [Compound B70], the IC50 is 5.01 nM at human Fyn and 776 nM at human Src. Regarding `COCCOCCOc1cc2ncnc3c2cc1OCCCNCCN(C)Cc1ccc2c(c1N3)OCO2` [Compound B4], the IC50 on human Fyn was 23.4 nM; at human Src it was 1480 nM.

For `CN1CCCCCOc2cc3c(ncnc3cc2OC[C@@H](O)CN2CCCCC2)Nc2c(ccc3c2OCO3)C1` [Compound B1], the figures for the IC50 on human Fyn and at human Src were less than 1 nM and 537 nM, respectively.

As for `CN1CCNCCCOc2cc3c(ncnc3cc2OCCCN2CCOCC2)Nc2c(ccc3c2OCO3)C1` [Compound B34], the IC50 was less than 1000 nM at human Fyn and 427 nM at human Src. Regarding `COc1cc2c3c(ncnc3c1)Nc1c(ccc3c1OCO3)CNCCCCCO2` [Compound B47], the melting point is 250 °C. Moreover, the IC50 on human Fyn is 120 nM. For `CN(CCO)CCCOc1cc2ncnc3c2cc1OCCCNCCN(C)Cc1ccc2c(c1N3)OCO2` [Compound B5], the results for the IC50 at human Fyn and at human Src were 20.9 nM and 501 nM, respectively. Regarding `COc1cc2ncnc3c2cc1OCCCCCNCc1ccc2c(c1N3)OCO2` [Compound A10], the “C2: Fyn kinase pIC50” value on human Fyn is greater than 6. Besides, the IC50 at human Src is 2570 nM. In turn, `CN1CCCCCOc2cc3c(ncnc3cc2OCCCNC(=O)OC(C)(C)C)Nc2c(ccc3c2OCO3)C1` [Compound A56] yielded a melting point of 210 to 213 °C. In addition, at human Fyn, the IC50 was less than 1000 nM. For the same compound, the IC50 on human Src was greater than 10000 nM. For the compound `COc1cc2ncnc3c2cc1OCCCCCNCc1cc(Oc2ccc(C)nc2)c2c(c1N3)OCO2` [Compound B17], the IC50 was 40.7 nM on human Fyn and greater than 10000 nM at human Src. In the same order, the values of `CN1CCN(CCCOc2cc3ncnc4c3cc2OCCCNCCN(C)Cc2ccc3c(c2N4)OCO3)CC1` [Compound B3] are 11.7 nM and 447 nM. In the same order, the values of `COc1cc2ncnc3c2cc1OCCCCCN(C)Cc1cc(Br)c2c(c1N3)OCO2` [Compound B43] are 19.5 nM and greater than 10000 nM. `COc1cc2ncnc3c2cc1OCCCN(C)CCN(C)Cc1ccc2c(c1N3)OCO2` [Compound B10]: the IC50 on human Fyn is 21.9 nM; on human Src it was 1910 nM. In the same order, the values of `COc1cc2ncnc3c2cc1OCCCCCNCc1cc(Br)c2c(c1N3)OCO2` [Compound B8] are 16.6 nM and 6460 nM. In the same order, the values of `CN1CCCCCOc2cc3c(ncnc3cc2OC[C@H](O)CN2CCS(=O)(=O)CC2)Nc2c(ccc3c2OCO3)C1` [Compound B25] are 5.25 nM and 1410 nM. For `COCCNCCCOc1cc2ncnc3c2cc1OCCCNCCN(C)Cc1ccc2c(c1N3)OCO2` [Compound B35], in that order: 29.5 nM and 631 nM. With `COc1cc2ncnc3c2cc1OCCCCCNCc1ccc2c(c1N3)OCO2` [Compound A9], the IC50 is less than 1000 nM at human Fyn and 2290 nM on human Src.

Turning to `CN1CCCCCOc2cc3c(ncnc3cc2OCCCN2CCN(CCO)CC2)Nc2c(ccc3c2OCO3)C1` [Compound B13], the IC50 on human Fyn is 3.63 nM; on human Src, 295 nM.

As for `CN1CCCCCOc2cc3c(ncnc3cc2OCCC2CCN(C(=O)CCS(C)(=O)=O)CC2)Nc2c(ccc3c2OCO3)C1` [Compound B65], the IC50 on human Fyn was 5.75 nM; at human Src it was 1820 nM.

Regarding `CN1CCN(CCCOc2cc3ncnc4c3cc2OCCCN(C(=O)OC(C)(C)C)CCN(C)Cc2ccc3c(c2N4)OCO3)CC1` [Compound A27], the IC50 is 22.4 nM at human Fyn and 2240 nM at human Src.

For the compound `CN1CCCCCOc2cc3c(ncnc3cc2OCCCNCCO)Nc2c(ccc3c2OCO3)C1` [Compound B69], the IC50 is 6.17 nM on human Fyn and 479 nM on human Src. `COCCOc1cc2ncnc3c2cc1OCCCCCN(C)Cc1ccc2c(c1N3)OCO2` [Compound B2]: the values for the IC50 on human Fyn and on human Src were 7.76 nM and 1100 nM, respectively.

For the compound `CN1CCN(CCCOc2cc3ncnc4c3cc2OCCCCCN(C)Cc2ccc3c(c2N4)OCO3)CC1` [Compound B12], the IC50 is 0.275 nM on human Fyn and 263 nM on human Src. For `COc1cc2ncnc3c2cc1OCCCNC(=O)[C@H](C)N(C)Cc1ccc2c(c1N3)OCO2` [Compound A38], in that order: 245 nM and 3310 nM.

The values are drawn from US8492377B2, “MTKI quinazoline derivatives” (Janssen Pharmaceutica NV, priority 2006, dated 2013).
